Data from US7238685B2, “Benzo-fused heterocycles as endothelin antagonists” (Actelion Pharmaceuticals Ltd., priority 2001, dated 2007).
Read-outs that look alike come from different tables or passages of the source.

Legend:
[1] = molecular target: T1, human recombinant ETB receptors (Homo sapiens, UniProt P24530); experiment: Inhibition of endothelin binding to membranes from CHO cells carrying human ET receptors (ETB)
T1 construct: expressed in transfected cells; host or cells: CHO cells (microsomal membranes)
T1 sequence (P24530 27-442): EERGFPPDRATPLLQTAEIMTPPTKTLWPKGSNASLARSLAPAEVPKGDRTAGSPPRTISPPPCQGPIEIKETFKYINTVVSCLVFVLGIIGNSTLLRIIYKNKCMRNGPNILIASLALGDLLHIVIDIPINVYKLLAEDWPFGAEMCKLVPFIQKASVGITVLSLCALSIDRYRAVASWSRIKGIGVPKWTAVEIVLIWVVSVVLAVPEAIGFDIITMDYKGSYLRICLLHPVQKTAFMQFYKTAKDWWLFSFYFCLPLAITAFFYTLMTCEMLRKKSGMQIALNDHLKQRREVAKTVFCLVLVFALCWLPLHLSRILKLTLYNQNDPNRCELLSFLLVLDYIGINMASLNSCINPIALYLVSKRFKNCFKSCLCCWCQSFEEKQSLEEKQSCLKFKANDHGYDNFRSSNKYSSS

[2] = molecular target: T2, human recombinant ETA receptors (Homo sapiens, UniProt P25101); experiment: Inhibition of endothelin binding to membranes from CHO cells carrying human ET receptors (ETA)
T2 construct: expressed in transfected cells; host or cells: CHO cells (microsomal membranes)
T2 sequence (P25101 21-427): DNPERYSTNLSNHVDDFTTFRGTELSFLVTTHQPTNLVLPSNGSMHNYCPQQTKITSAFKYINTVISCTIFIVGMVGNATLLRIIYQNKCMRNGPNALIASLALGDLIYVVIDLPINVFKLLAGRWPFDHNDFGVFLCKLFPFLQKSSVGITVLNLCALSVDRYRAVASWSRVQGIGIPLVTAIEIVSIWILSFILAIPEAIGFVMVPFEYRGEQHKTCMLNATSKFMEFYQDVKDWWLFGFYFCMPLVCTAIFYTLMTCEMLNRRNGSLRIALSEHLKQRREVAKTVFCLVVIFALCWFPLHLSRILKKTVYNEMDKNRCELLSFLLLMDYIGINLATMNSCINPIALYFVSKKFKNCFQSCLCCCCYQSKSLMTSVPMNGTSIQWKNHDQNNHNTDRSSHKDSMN

[3] = molecular target: T3, rat aortic rings (ETA receptors) (Rattus norvegicus, UniProt P26684); experiment: Inhibition of endothelin-1-induced contractions on isolated rat aortic rings; conditions: read-out: pA2 (aortic rings) (converted)
T3 construct: from tissue; host or cells: thoracic aorta rings of adult Wistar rats, endothelium removed
T3 sequence (P26684 21-426): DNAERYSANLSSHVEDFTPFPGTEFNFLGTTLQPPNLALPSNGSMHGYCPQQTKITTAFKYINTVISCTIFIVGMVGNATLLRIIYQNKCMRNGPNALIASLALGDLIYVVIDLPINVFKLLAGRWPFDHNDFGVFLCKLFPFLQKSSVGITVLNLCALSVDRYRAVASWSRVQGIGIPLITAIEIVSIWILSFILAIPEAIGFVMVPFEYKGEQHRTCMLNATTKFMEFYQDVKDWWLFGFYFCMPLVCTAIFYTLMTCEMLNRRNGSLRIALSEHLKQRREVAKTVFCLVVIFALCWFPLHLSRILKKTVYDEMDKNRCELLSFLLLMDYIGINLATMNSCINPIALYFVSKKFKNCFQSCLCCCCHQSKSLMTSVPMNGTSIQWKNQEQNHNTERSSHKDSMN

Structure (SMILES)	IC50 ([1]; read-out: IC50 ETB)	IC50 ([2]; read-out: IC50 ETA)	Kb [3]	IC50 [1]	IC50 [2]
Cc1cc(C)nc(O[C@H](C(=O)O)[C@@]2(c3ccccc3)NCc3nnc(CC(=O)O)n3-c3ccccc32)n1 (racemic) [Example 27, (±)-(S*)-((6S*)-1-carboxymethyl-6-phenyl-5,6-dihydro-4H-2,3,5,10b-tetraaza-benzo[e]azulen-6-yl)-(4,6-dimethyl-pyrimidin-2-yloxy)-acetic acid]				126 nM	13 nM
COc1cc(OC)nc(O[C@H](C(=O)O)[C@@]2(c3ccccc3)NCC(=O)N(C)c3ccccc32)n1 (racemic) [Example 39, (±)-(S*)-((5S*)-1-methyl-2-oxo-5-phenyl-2,3,4,5-tetrahydro-1H-benzo[e][1,4]di-azepin-5-yl)-(4,6-dimethoxy-pyrimidin-2-yloxy)-acetic acid]	701 nM	29 nM			
COc1cc(CN2C(=O)CN[C@](c3ccccc3)([C@H](Oc3nc(OC)cc(OC)n3)C(=O)O)c3ccccc32)cc(OC)c1 (racemic) [Example 40, (±)-(S*)-[(5S*)-1-(3,5-dimethoxy-benzyl)-2-oxo-5-phenyl-2,3,4,5-tetrahydro-1H-benzo[e][1,4]diazepin-5-yl]-(4,6-dimethoxy-pyrimidin-2-yloxy)-acetic acid]	52 nM	8 nM			
Cc1cc(C)nc(O[C@H](C(=O)O)[C@@]2(c3ccccc3)NCC(=O)N(C)c3ccccc32)n1 (racemic) [Example 49, (±)-(S*)-(4,6-dimethyl-pyrimidin-2-yloxy)-((5S*)-1-methyl-2-oxo-5-phenyl-2,3,4,5-tetrahydro-1H-benzo[e][1,4]diazepin-5-yl)-acetic acid]	240 nM	17 nM			
Cc1cc(C)nc(O[C@H](C(=O)O)[C@@]2(c3ccccc3)NCC(=O)N(CC(=O)O)c3ccccc32)n1 (racemic) [Example 50, (±)-(S*)-((5S*)-1-Carboxymethyl-2-oxo-5-phenyl-2,3,4,5-tetrahydro-1H-benzo[e][1,4]diazepin-5-yl)-(4,6-dimethyl-pyrimidin-2-yloxy)-acetoc acid]	507 nM	12 nM			
COc1cc(CN2C(=O)CN[C@](c3ccccc3)([C@H](Oc3nc(C)cc(C)n3)C(=O)O)c3ccccc32)cc(OC)c1 (racemic) [Example 51, (±)-(S*)-[(5S*)-1-(3,5-Dimethoxy-benzyl)-2-oxo-5-phenyl-2,3,4,5-tetra-hydro-1H-benzo[e][1,4]diazepin-5-yl]-(4,6-dimethyl-pyrimidin-2-yloxy)-acetic acid]	26 nM	7 nM	40.7 nM		
Cc1cc(C)nc(O[C@H](C(=O)O)[C@@]2(c3ccccc3)NCC(=O)N(CCO)c3ccccc32)n1 (racemic) [Example 56, (±)-(S*)-(4,6-Dimethyl-pyrimidin-2-yloxy)-[(5S*)-1-(2-hydroxy-ethyl)-2-oxo-5-phenyl-2,3,4,5-tetrahydro-1H-benzo[e][1,4]diazepin-5-yl]-acetic acid]				83 nM	4 nM
Cc1cc(C)nc(O[C@H](C(=O)O)[C@@]2(c3ccccc3)NCC(=O)N(c3ccccc3)c3ccccc32)n1 (racemic) [Example 117, (±)-(S*)-(4,6-dimethyl-pyrimidin-2-yloxy)-[(5S*)-2-oxo-1,5-diphenyl-2,3,4,5-tetrahydro-1H-benzo[e][1,4]diazepin-5-yl]-acetic acid]	749 nM	61 nM			
Cc1cc(C)nc(O[C@H](C(=O)O)[C@]2(c3ccccc3)c3ccccc3N(Cc3c(F)cc(F)cc3F)C(=O)CN2C)n1 (racemic) [Example 129, (±)-(S*)-(4,6-Dimethyl-pyrimidin-2-yloxy)-[(5S*)-4-methyl-2-oxo-5-phenyl-1-(2,4,6-trifluoro-benzyl)-2,3,4,5-tetrahydro-1H-benzo[e][1,4]diazepin-5-yl]-acetic acid]	353 nM	6 nM			
Cc1cc(C)nc(O[C@H](C(=O)O)[C@@]2(c3ccccc3)NCC(=O)N(C)c3ccc(Cl)cc32)n1 (racemic) [Example 170, (±)-(1S*)-((5S*)-7-Chloro-1-methyl-2-oxo-5-phenyl-2,3,4,5-tetra-hydro-1H-benzo[e][1,4]diazepin-5-yl)-(4,6-dimethyl-pyrimidin-2-yloxy)-acetic acid]	368 nM	15 nM			
Cc1cccc([C@]2([C@H](Oc3nc(C)cc(C)n3)C(=O)O)NCC(=O)N(C)c3ccccc32)c1 (racemic) [Example 187, (±)-(S*)-(4,6-Dimethyl-pyrimidin-2-yloxy)-[(5S*)-1-methyl-2-oxo-5-m-tolyl-2,3,4,5-tetrahydro-1H-benzo[e][1,4]diazepin-5-yl]-acetic acid]	180 nM	18 nM			
Cc1cc(C)nc(O[C@H](C(=O)O)[C@@]2(c3cccc(-c4ccccc4)c3)NCC(=O)N(Cc3c(F)ccc(F)c3F)c3ccccc32)n1 (racemic) [Example 213]	29 nM	3 nM			
CCCCc1ccc(CN2C(=O)CN[C@](c3cccc(CCCC)c3)([C@H](Oc3nc(C)cc(C)n3)C(=O)O)c3ccccc32)cc1 (racemic) [Example 223]	12 nM	7 nM			

Further lines, with some results ahead:

IC50 ([1]; read-out: IC50 ETB)	IC50 ([2]; read-out: IC50 ETA)	Kb [3]	Structure (SMILES)	IC50 [1]	IC50 [2]
29 nM	2 nM		COC(=O)c1ccc(CN2C(=O)CN[C@](c3ccccc3)([C@H](Oc3nc(C)cc(C)n3)C(=O)O)c3ccccc32)cc1 (racemic) [Example 58, (±)-4-{(5S*)-5-[(S*)-Carboxy-(4,6-dimethyl-pyrimidin-2-yloxy)-methyl]-2-oxo-5-phenyl-2,3,4,5-tetrahydro-benzo[e][1,4]diazepin-1-ylmethyl}-benzoic acid methyl ester]		
4 nM	1 nM		Cc1cc(C)nc(O[C@H](C(=O)O)[C@@]2(c3ccccc3)NCC(=O)N(CCc3cn(C)c4ccccc34)c3ccccc32)n1 (racemic) [Example 68]		
23 nM	3 nM		Cc1cc(C)nc(O[C@H](C(=O)O)[C@@]2(c3ccccc3)NCC(=O)N(CCc3ccccc3)c3ccccc32)n1 (racemic) [Example 78]		
10 nM	3 nM		Cc1cc(C)c(CN2C(=O)CN[C@](c3ccccc3)([C@H](Oc3nc(C)cc(C)n3)C(=O)O)c3ccccc32)c(C)c1 (racemic) [Example 111]		
		105 nM	COc1cc(OC)nc(O[C@H](C(=O)O)[C@@]2(c3ccccc3)NCC(=O)N(C)c3ccc(Cl)cc32)n1 (racemic) [Example 166, (±)-(1S*)-((5S*)-7-Chloro-1-methyl-2-oxo-5-phenyl-2,3,4,5-tetrahydro-1H-benzo[e][1,4]diazepin-5-yl)-(4,6-dimethoxy-pyrimidin-2-yloxy)-acetic acid]		
947 nM	36 nM		COc1cc(CN2C(=O)CN[C@](c3ccccc3)([C@H](Oc3nc(OC)cc(OC)n3)C(=O)O)c3cc(Cl)ccc32)cc(OC)c1 (racemic) [Example 167, (±)-(1S*)-[(5S*)-7-Chloro-1-(3,5-dimethoxy-benzyl)-2-oxo-5-phenyl-2,3,4,5-tetrahydro-1H-benzo[e][1,4]diazepin-5-yl]-(4,6-dimethoxy-pyrimidin-2-yloxy)-acetic acid]		
39 nM	5 nM		COc1ccc(CN2C(=O)CN[C@](c3ccc(F)c(C)c3)([C@H](Oc3nc(C)cc(C)n3)C(=O)O)c3ccccc32)cc1 (racemic) [Example 218, (±)-(S*)-(4,6-Dimethyl-pyrimidin-2-yloxy)-[(5S*)-5-(4-fluoro-3-methyl-phenyl)-1-(4-methoxy-benzyl)-2-oxo-2,3,4,5-tetrahydro-1H-benzo[e][1,4]diazepin-5-yl]-acetic acid]		
23 nM	11 nM		COC(=O)[C@@H](c1ccccc1)N1C(=O)CN[C@](c2ccccc2)([C@H](Oc2nc(C)cc(C)n2)C(=O)O)c2ccccc21 (relative stereo) [Example 52, (±)-(S*)-(4,6-Dimethyl-pyrimidin-2-yloxy)-[(5S*)-1-((R/S)-methoxycarbonyl-phenyl-methyl)-2-oxo-5-phenyl-2,3,4,5-tetrahydro-1H-benzo[e][1,4]diazepin-5-yl]-acetic acid]		
